The text below walks through data of patent US11254686B1 (Corvus Pharmaceuticals, Inc., priority 2017, dated 2022).

One assay concerns the target adenosine A2A receptor (Homo sapiens (Human), UniProt P29274). Nature of the assay: Adenosine receptor activity assay (Table 1), A2A activity. The format is biochemical. Conditions: read-out: Ave A2A cAMP IC50.
The target in the next assay is adenosine A2B receptor (Homo sapiens (Human), UniProt P29275). The experiment in a line: Adenosine receptor activity assay (Table 1), A2B activity. The format is biochemical. Conditions: for IC50: read-out: Ave A2B cAMP IC50.
adenosine A2B receptor, sequence (P29275 whole entry): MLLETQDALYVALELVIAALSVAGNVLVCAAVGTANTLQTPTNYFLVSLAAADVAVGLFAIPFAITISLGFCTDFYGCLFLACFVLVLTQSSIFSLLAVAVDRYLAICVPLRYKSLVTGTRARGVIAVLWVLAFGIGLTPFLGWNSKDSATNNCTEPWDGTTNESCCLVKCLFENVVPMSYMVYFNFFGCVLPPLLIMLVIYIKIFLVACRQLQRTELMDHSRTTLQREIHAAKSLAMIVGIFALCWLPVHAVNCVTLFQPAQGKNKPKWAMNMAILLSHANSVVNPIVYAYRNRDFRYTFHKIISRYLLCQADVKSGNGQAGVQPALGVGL
Where [1] appears, read: A2A activity to A2B activity (A2A/A2B).
Where [2] appears, read: A2A activity to the A2B activity, A2A/A2B.

adenosine A2A receptor, sequence (P29274 whole entry): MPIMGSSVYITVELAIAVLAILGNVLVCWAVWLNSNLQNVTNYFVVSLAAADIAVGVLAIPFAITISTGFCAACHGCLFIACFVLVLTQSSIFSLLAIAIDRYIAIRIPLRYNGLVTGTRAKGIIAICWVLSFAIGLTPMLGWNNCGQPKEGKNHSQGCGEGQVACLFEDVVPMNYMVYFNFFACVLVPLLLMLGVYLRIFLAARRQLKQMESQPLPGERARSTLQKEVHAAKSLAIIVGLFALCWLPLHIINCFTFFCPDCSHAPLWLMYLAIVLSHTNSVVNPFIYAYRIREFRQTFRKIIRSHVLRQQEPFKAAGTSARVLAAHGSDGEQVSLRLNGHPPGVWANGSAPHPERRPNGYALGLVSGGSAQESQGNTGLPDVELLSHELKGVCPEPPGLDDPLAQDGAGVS

Consider `COc1cccc(CCNC(=O)c2nc(N[C@@H](C)c3ccccn3)nc3ccsc23)c1` [Example Z437, (S)—N-(3-Methoxyphenethyl)-2-((1-(pyridin-2-yl)ethyl)amino)thieno[3,2-d]pyrimidine-4-carboxamide], for which the IC50 at adenosine A2A receptor and on adenosine A2B receptor was 100 to 500 nM each time.

As for `C[C@H](Nc1nc(C(=O)N2CC[C@@H](O)C2)c2sc(N)cc2n1)c1ccccn1` [Example Z208, (6-Amino-2-(((S)-1-(pyridin-2-yl)ethyl)amino)thieno[3,2-d]pyrimidin-4-yl)((R)-3-hydroxypyrrolidin-1-yl)methanone], the values for the IC50 at adenosine A2A receptor and at adenosine A2B receptor were above 500 nM and 50 to 100 nM, respectively. Moreover, the Ratio at adenosine A2B receptor (setting [1]) is reported as 18.79.

Regarding `COC[C@@H](Nc1nc(C(=O)NC[C@H](C)O)c2sccc2n1)c1cccnc1` [Example Z320, N—((S)-2-Hydroxypropyl)-2-(((S)-2-methoxy-1-(pyridin-3-yl)ethyl)amino)thieno[3,2-d]pyrimidine-4-carboxamide], the IC50 on adenosine A2A receptor was 100 to 500 nM; at adenosine A2B receptor it was 50 to 100 nM. Also, the Ratio on adenosine A2B receptor (setting [1]) worked out at 3.92.

On to `Cc1cc2nc(N[C@@H](C)c3cccnc3)nc(C(=O)NCC[C@@H]3CCNC3)c2s1` [Example Z500, 6-Methyl-2-(((S)-1-(pyridin-3-yl)ethyl)amino)-N-(2-((S)-pyrrolidin-3-yl)ethyl)thieno[3,2-d]pyrimidine-4-carboxamide], for which the concentration for half-maximal inhibition (IC50) at adenosine A2A receptor and at adenosine A2B receptor was above 500 nM each time. For the same molecule, on adenosine A2B receptor (setting [2]), the Ratio is given as 12.75.

On to `Cc1cc2nc(N[C@@H](C)c3ccccn3)nc(C(=O)N3CC(CNC(=O)C(C)(C)C)C3)c2s1` [Example Z527, (S)—N-((1-(6-Methyl-2-((1-(pyridin-2-yl)ethyl)amino)thieno[3,2-d]pyrimidine-4-carbonyl)azetidin-3-yl)methyl)pivalamide], for which the concentration for half-maximal inhibition (IC50) at adenosine A2A receptor was above 500 nM; on adenosine A2B receptor it was 50 to 100 nM. In addition, the Ratio on adenosine A2B receptor (setting [2]) is recorded as 7.31.

Turning to `COc1cccc(CCNC(=O)c2nc(N[C@@H](C)c3ccccn3)nc3c(C)csc23)c1` [Example Z444, (S)—N-(3-Methoxyphenethyl)-7-methyl-2-((1-(pyridin-2-yl)ethyl)amino)thieno[3,2-d]pyrimidine-4-carboxamide], the IC50 at adenosine A2A receptor fell in the range of 50 to 100 nM; on adenosine A2B receptor, 100 to 500 nM. Besides, the Ratio on adenosine A2B receptor (setting [2]) is on record as 0.35.

Take `C[C@H](Nc1nc(C(=O)N2CC[C@@H](NC(=O)OC(C)(C)C)C2)c2sccc2n1)c1cccnc1` [Example Z313, tert-Butyl ((R)-1-(2-(((S)-1-(pyridin-3-yl)ethyl)amino)thieno[3,2-d]pyrimidine-4-carbonyl)pyrrolidin-3-yl)carbamate]: the IC50 on adenosine A2A receptor was 100 to 500 nM; at adenosine A2B receptor, above 500 nM. The Ratio on adenosine A2B receptor (setting [1]) is 0.29.

On to `C[C@H](Nc1nc(C(=O)N2CC(C(=O)OC(C)(C)C)C2)c2sccc2n1)c1cncc(F)c1` [Example Z572, tert-Butyl (S)-1-(2-((1-(5-fluoropyridin-3-yl)ethyl)amino)thieno[3,2-d]pyrimidine-4-carbonyl)azetidine-3-carboxylate], for which the figures for the IC50 at adenosine A2A receptor and at adenosine A2B receptor were 100 to 500 nM and 10 to 50 nM, respectively. In addition, the Ratio on adenosine A2B receptor (setting [2]) came out at 2.90.

For the molecule `Cc1cc2nc(N[C@@H](C)c3cncc(F)c3)nc(C(=O)NCCC3CCN(C(=O)OC(C)(C)C)CC3)c2s1` [Example Z487, tert-Butyl (S)-4-(2-(2-((1-(5-fluoropyridin-3-yl)ethyl)amino)-6-methylthieno[3,2-d]pyrimidine-4-carboxamido)ethyl)piperidine-1-carboxylate], the IC50 was above 500 nM on adenosine A2A receptor and 100 to 500 nM on adenosine A2B receptor. Moreover, the Ratio on adenosine A2B receptor (setting [2]) stood at 6.54.

With `C[C@H](Nc1nc(C(=O)NCCc2ccc(N)cc2)c2sccc2n1)c1cncc(F)c1` [Example Z493, (S)—N-(4-Aminophenethyl)-2-((1-(5-fluoropyridin-3-yl)ethyl)amino)thieno[3,2-d]pyrimidine-4-carboxamide], the IC50 at adenosine A2A receptor was above 500 nM; on adenosine A2B receptor, 50 to 100 nM. Besides, the Ratio at adenosine A2B receptor (setting [2]) was determined as 17.90.

For `C[C@H](Nc1nc(C(=O)NCCC2CCCC2)c2sccc2n1)c1ccccn1` [Example Z424, (S)—N-(2-Cyclopentylethyl)-2-((1-(pyridin-2-yl)ethyl)amino)thieno[3,2-d]pyrimidine-4-carboxamide], the IC50 at adenosine A2A receptor and on adenosine A2B receptor was 50 to 100 nM each time. The Ratio at adenosine A2B receptor (setting [2]) is given as 1.46.

On to `CO[C@@H]1CCN(C(=O)c2nc(N[C@@H](C)c3ccccn3)nc3c(C)csc23)C1` [Example Z441, ((R)-3-Methoxypyrrolidin-1-yl)(7-methyl-2-(((S)-1-(pyridin-2-yl)ethyl)amino)thieno[3,2-d]pyrimidin-4-yl)methanone], for which the IC50 at adenosine A2A receptor and on adenosine A2B receptor was 10 to 50 nM each time. In addition, on adenosine A2B receptor (setting [2]), the Ratio stood at 1.21.

As for `COc1ccc(CNc2nc(C(=O)NCc3cccnc3)c3sccc3n2)cn1` [Example Z436, 2-(((6-Methoxypyridin-3-yl)methyl)amino)-N-(pyridin-3-ylmethyl)thieno[3,2-d]pyrimidine-4-carboxamide], the IC50 on adenosine A2A receptor was 100 to 500 nM; on adenosine A2B receptor, above 500 nM. Also, at adenosine A2B receptor (setting [2]), the Ratio was determined as 0.15.

`CC(Nc1nc(C(=O)N2CC[C@@H](F)C2)c2sccc2n1)c1cccnc1` (stereo partly drawn) [Example Z48, ((R)-3-Fluoropyrrolidin-1-yl)(2-((1-(pyridin-3-yl)ethyl)amino)thieno[3,2-d]pyrimidin-4-yl)methanone]: the IC50 fell in the range of 100 to 500 nM on adenosine A2A receptor and 10 to 50 nM at adenosine A2B receptor. Moreover, at adenosine A2B receptor (setting [1]), the Ratio is reported as 9.26.

In the case of `COC(=O)c1ccc(CCNC(=O)c2nc(N[C@@H](C)c3cncc(F)c3)nc3ccsc23)cc1` [Example Z423, Methyl (S)-4-(2-(2-((1-(5-fluoropyridin-3-yl)ethyl)amino)thieno[3,2-d]pyrimidine-4-carboxamido)ethyl)benzoate], the results for the IC50 on adenosine A2A receptor and on adenosine A2B receptor were above 500 nM and 100 to 500 nM, respectively. Also, the Ratio at adenosine A2B receptor (setting [2]) is recorded as 5.22.

Consider `O=C(c1nc(NCc2cccnn2)nc2ccsc12)N1CCCC1` [Example Z43, (2-((Pyridazin-3-ylmethyl)amino)thieno[3,2-d]pyrimidin-4-yl)(pyrrolidin-1-yl)methanone], for which the IC50 was above 500 nM on adenosine A2A receptor and 100 to 500 nM on adenosine A2B receptor. In addition, the Ratio at adenosine A2B receptor (setting [1]) is 33.44.

Take `C[C@H](Nc1nc(C(=O)N2CC[C@@H](N)C2)c2sccc2n1)c1cccnc1` [Example Z366, ((R)-3-Aminopyrrolidin-1-yl)(2-(((S)-1-(pyridin-3-yl)ethyl)amino)thieno[3,2-d]pyrimidin-4-yl)methanone]: the IC50 at adenosine A2A receptor and at adenosine A2B receptor was above 500 nM each time. Moreover, the Ratio at adenosine A2B receptor (setting [1]) is on record as 1.86.

Regarding `COCC(Nc1nc(C(=O)N2CCCC2)c2sccc2n1)c1cccnc1` (stereo not drawn) [Example Z127, (2-((2-Methoxy-1-(pyridin-3-yl)ethyl)amino)thieno[3,2-d]pyrimidin-4-yl)(pyrrolidin-1-yl)methanone], the IC50 lay in the range of 100 to 500 nM at adenosine A2A receptor and 10 to 50 nM at adenosine A2B receptor.

With `C[C@H](Nc1nc(C(=O)N2CC[C@H](O)C2)c2sc(N)cc2n1)c1cccnc1` [Example Z196, (6-Amino-2-(((S)-1-(pyridin-3-yl)ethyl)amino)thieno[3,2-d]pyrimidin-4-yl)((S)-3-hydroxypyrrolidin-1-yl)methanone], the IC50 was above 500 nM on adenosine A2A receptor and 10 to 50 nM at adenosine A2B receptor. For the same molecule, the Ratio on adenosine A2B receptor (setting [1]) turned out to be 102.27.

`Cc1csc2c(C(=O)NCc3ccccc3)nc(N[C@@H](C)c3ccccn3)nc12` [Example Z443, (S)—N-Benzyl-7-methyl-2-((1-(pyridin-2-yl)ethyl)amino)thieno[3,2-d]pyrimidine-4-carboxamide]: the values for the IC50 at adenosine A2A receptor and on adenosine A2B receptor were 10 to 50 nM and 50 to 100 nM, respectively. For the same molecule, at adenosine A2B receptor (setting [2]), the Ratio amounted to 0.44.

For the molecule `CC(C)C(=O)N1CCN(C(=O)c2nc(N[C@@H](C)c3cncc(F)c3)nc3ccsc23)C1` [Example Z564, (S)-1-(3-(2-((1-(5-Fluoropyridin-3-yl)ethyl)amino)thieno[3,2-d]pyrimidine-4-carbonyl)imidazolidin-1-yl)-2-methylpropan-1-one], the IC50 on adenosine A2A receptor was above 500 nM; on adenosine A2B receptor, 100 to 500 nM. Also, the Ratio on adenosine A2B receptor (setting [2]) is listed as 18.15.

Take `Cc1cncc(CNC(=O)c2nc(NCc3cncc(C)c3)nc3ccsc23)c1` [Example Z45, N-((5-Methylpyridin-3-yl)methyl)-2-(((5-methylpyridin-3-yl)methyl)amino)thieno[3,2-d]pyrimidine-4-carboxamide]: the IC50 at adenosine A2A receptor and at adenosine A2B receptor was above 500 nM in each case. Also, the Ratio on adenosine A2B receptor (setting [1]) turned out to be 1.00.

With `C[C@H](Nc1nc(C(=O)NCc2ncc[nH]2)c2sccc2n1)c1ccccn1` [Example Z304, (S)—N-((1H-Imidazol-2-yl)methyl)-2-((1-(pyridin-2-yl)ethyl)amino)thieno[3,2-d]pyrimidine-4-carboxamide], the IC50 on adenosine A2A receptor and at adenosine A2B receptor was 100 to 500 nM throughout. Also, on adenosine A2B receptor (setting [1]), the Ratio was 2.03.

On to `N[C@H]1CCN(C(=O)c2nc(NCc3cncc(F)c3)nc3ccsc23)C1` [Example Z360, (S)-(3-Aminopyrrolidin-1-yl)(2-(((5-fluoropyridin-3-yl)methyl)amino)thieno[3,2-d]pyrimidin-4-yl)methanone], for which the IC50 at adenosine A2A receptor is above 500 nM; on adenosine A2B receptor, 100 to 500 nM. The Ratio at adenosine A2B receptor (setting [1]) came out at 72.24.

With `C[C@H](Nc1nc(C(=O)NC2COC2)c2sccc2n1)c1ccccn1` [Example Z194, (S)—N-(Oxetan-3-yl)-2-((1-(pyridin-2-yl)ethyl)amino)thieno[3,2-d]pyrimidine-4-carboxamide], the IC50 was 100 to 500 nM on adenosine A2A receptor and 10 to 50 nM at adenosine A2B receptor. Moreover, the Ratio on adenosine A2B receptor (setting [1]) turned out to be 5.79.

Turning to `C[C@H](Nc1nc(C(=O)NCCC2CCN(C(=O)OC(C)(C)C)CC2)c2sccc2n1)c1cncc(F)c1` [Example Z343, tert-Butyl (S)-4-(2-(2-((1-(5-Fluoropyridin-3-yl)ethyl)amino)thieno[3,2-d]pyrimidine-4-carboxamido)ethyl)piperidine-1-carboxylate], the IC50 at adenosine A2A receptor is 100 to 500 nM; on adenosine A2B receptor it was 50 to 100 nM.

A word on the IC50: it is the midpoint of a concentration-inhibition curve.
